Data published in ChEMBL document CHEMBL3886157, “Heterocyclic carboxamides as modulators of kinase activity” (2015).

Columns and labels:
[1] = molecular target: RAC-alpha serine/threonine-protein kinase (Homo sapiens, UniProt P31749); assay: AKT Enzyme Assay: A TTP Mosquito liquid handling instrument is used to place […] of the appropriate concentration of inhibitor in 100% DMSO (for a dose response curve calculation) into each well of a 384-well plate. To this reaction components are added to a final volume of 12.50 0.1 ng/uL His-AKT (Full Length), (Invitrogen, Part # P2999, Lot #641228C). 160 uM ATP (Fluka, 02055) 1 mM DTT (Sigma, D0632) 1 mM MgCl2 (Sigma, M1028) 1 uM substrate peptide (sequence FITC-AHA-[…]-NH2), synthesized by Tufts Peptide Synthesis service. 100 mM HEPES pH 7.5 (Calbiochem, 391338) 0.015% Brij-35 (Sigma, B4184)The reaction is incubated for 90 min at 25° C, and then stopped by the addition of 70 ul of Stop buffer (100 mM HEPES pH 7.5, 0.015% Brij-35, 10 mM EDTA (Sigma, E7889)).The plate is read on a Caliper LC 3000 in an Off-Chip mobility shift assay format, using the following parameters for a 12-sipper chip: screening pressure -2.3 psi, upstream voltage -500, and downstream voltage -3000.
[2] = molecular target: Ribosomal protein S6 kinase beta-1 (Homo sapiens, UniProt P23443, T412E); assay: P70S6K Enzyme Assay: P70S6K inhibitor compounds are diluted and plated in 96 well plates. A reaction mixture including the following components is then added to the compound plate to initiate the enzyme reaction; P70S6K (3 nM, T412E mutant, Millipore) is mixed with 24 uM ATP in an assay buffer containing 100 mM Hepes (pH 7.5), 5 mM MgCl2, 1 mM DTT, 0.015% Brij and 1 uM of the substrate peptide FITC-AHA-[…]-OH (derived from the S6 ribosomal protein sequence, FITC=fluorescein isothiocyanate, AHA=6-aminohexanoic acid). The reaction is incubated for 90 min at 25° C., before the addition of 10 mM EDTA to stop the reaction. The proportion of substrate and product (phosphorylated) peptide is analysed on a Caliper Life Sciences Lab Chip 3000, using a pressure of -1.4 psi, and upstream and downstream voltages of -3000 and -700 respectively. Product peaks are resolved before substrate peaks on the resulting chromatograms.
Ribosomal protein S6 kinase beta-1, sequence (P23443 whole entry T412E): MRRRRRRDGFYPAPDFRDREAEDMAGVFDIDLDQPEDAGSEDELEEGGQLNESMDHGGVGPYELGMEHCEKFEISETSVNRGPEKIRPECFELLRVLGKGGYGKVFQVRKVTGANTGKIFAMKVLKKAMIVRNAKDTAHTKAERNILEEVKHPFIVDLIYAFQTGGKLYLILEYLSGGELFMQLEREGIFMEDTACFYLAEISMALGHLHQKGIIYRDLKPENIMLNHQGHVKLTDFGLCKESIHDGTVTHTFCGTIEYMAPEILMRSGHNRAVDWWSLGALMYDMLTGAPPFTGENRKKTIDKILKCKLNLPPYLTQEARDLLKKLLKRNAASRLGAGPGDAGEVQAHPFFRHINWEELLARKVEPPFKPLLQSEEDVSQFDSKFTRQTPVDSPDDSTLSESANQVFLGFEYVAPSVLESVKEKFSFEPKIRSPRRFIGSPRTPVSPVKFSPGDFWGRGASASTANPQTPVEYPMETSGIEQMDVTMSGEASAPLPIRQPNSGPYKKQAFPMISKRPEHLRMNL

RAC-alpha serine/threonine-protein kinase, sequence (P31749 whole entry): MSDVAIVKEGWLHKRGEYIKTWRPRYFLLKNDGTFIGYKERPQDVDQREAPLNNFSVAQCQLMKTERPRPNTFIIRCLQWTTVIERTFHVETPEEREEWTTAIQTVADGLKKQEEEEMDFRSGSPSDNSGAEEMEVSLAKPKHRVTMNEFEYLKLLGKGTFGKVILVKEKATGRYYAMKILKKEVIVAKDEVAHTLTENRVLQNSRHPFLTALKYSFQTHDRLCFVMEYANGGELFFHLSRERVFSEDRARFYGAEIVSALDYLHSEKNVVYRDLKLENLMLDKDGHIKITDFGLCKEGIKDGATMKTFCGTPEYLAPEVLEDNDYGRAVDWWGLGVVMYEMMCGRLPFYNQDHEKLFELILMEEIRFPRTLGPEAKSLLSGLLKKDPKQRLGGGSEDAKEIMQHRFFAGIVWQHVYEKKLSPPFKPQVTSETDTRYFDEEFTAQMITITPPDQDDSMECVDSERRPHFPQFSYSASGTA

Compound | IC50 [1] [nM] | IC50 [2] [nM]
NC(=O)c1ccc(NCCc2ccc(Cl)c(Cl)c2)c2cncnc12 | > 100000 | 98
CNC[C@@H](Nc1ccc(C(N)=O)c2ncncc12)c1cccc(F)c1 |  | > 1000
NC(=O)c1ccc(NC(=O)C2CNC[C@@H]2c2cccc(F)c2)c2cccnc12 (some centres not stated) |  | > 1000
CN(Cc1ccc(Cl)c(Cl)c1)C1CCN(c2ccc(C(N)=O)c3ncncc23)C1 (racemic) |  | 570
NC(=O)c1ccc(NCC(c2ccccc2)N2CCNCC2)c2cncnc12 (racemic) |  | 170
NC(=O)c1ccc(N2CCC(N)(C(=O)Nc3ccc(F)c(C(F)(F)F)c3)C2)c2cncnc12 (racemic) |  | 270

More lines, now with the values ahead:

IC50 [1] [nM] | IC50 [2] [nM] | Compound
> 100000 | > 100000 | NC(=O)c1ccc(N2CCN(c3ccc(Cl)c(Cl)c3)CC2)c2cncnc12
57000 | 690 | NC(=O)c1ccc(NCc2ccccc2)c2cncnc12
 | 490 | NC(=O)c1ccc(N2CCC(NCc3ccc(Cl)c(Cl)c3)C2)c2cncnc12 (racemic)
